Target: ROCK2 (Homo sapiens (Human), UniProt O75116)
Experiment: ROCK2 kinase inhibition assay (LABCHIP peptide phosphorylation)
Type: biochemical
Settings: 5 μM ATP, 1.5 μM peptide substrate
Method: The effectiveness of compounds of the present invention as ROCK inhibitors can be determined in a 30 μL, assay containing 20 mM HEPES, pH 7.5, 20 mM MgCl2, 0.015% Brij-35, 4 mM DTT, 5 μM ATP and 1.5 μM peptide substrate (FITC-AHA-AKRRRLSSLRA-OH). Compounds were dissolved in DMSO so that the final concentration of DMSO was <2%, and the reaction was initiated with Rho kinase variants. After incubation, the reaction was terminated by the addition of EDTA and the phosphorylated and non-phosphorylated peptides separated using a LABCHIP® 3000 Reader (Caliper Life Sciences). […] Compounds were tested in dose-response format, and the inhibition of kinase activity was calculated at each concentration of compound. The inhibition data were fit using a curve-fitting program to determine the IC50; i.e., the concentration of compound required to inhibit 50% of kinase activity.
Representative Examples were tested in the ROCK2 assay described above and found having ROCK2 inhibitory activity. The ranges of the ROCK2 IC50 values are as follows: ROCK2 IC50: ++++(<10 nM)+++(10-100 nM)++(100-500 nM)+(500-2000 nM)

Chain of ROCK2 (O75116 whole entry, species assumed): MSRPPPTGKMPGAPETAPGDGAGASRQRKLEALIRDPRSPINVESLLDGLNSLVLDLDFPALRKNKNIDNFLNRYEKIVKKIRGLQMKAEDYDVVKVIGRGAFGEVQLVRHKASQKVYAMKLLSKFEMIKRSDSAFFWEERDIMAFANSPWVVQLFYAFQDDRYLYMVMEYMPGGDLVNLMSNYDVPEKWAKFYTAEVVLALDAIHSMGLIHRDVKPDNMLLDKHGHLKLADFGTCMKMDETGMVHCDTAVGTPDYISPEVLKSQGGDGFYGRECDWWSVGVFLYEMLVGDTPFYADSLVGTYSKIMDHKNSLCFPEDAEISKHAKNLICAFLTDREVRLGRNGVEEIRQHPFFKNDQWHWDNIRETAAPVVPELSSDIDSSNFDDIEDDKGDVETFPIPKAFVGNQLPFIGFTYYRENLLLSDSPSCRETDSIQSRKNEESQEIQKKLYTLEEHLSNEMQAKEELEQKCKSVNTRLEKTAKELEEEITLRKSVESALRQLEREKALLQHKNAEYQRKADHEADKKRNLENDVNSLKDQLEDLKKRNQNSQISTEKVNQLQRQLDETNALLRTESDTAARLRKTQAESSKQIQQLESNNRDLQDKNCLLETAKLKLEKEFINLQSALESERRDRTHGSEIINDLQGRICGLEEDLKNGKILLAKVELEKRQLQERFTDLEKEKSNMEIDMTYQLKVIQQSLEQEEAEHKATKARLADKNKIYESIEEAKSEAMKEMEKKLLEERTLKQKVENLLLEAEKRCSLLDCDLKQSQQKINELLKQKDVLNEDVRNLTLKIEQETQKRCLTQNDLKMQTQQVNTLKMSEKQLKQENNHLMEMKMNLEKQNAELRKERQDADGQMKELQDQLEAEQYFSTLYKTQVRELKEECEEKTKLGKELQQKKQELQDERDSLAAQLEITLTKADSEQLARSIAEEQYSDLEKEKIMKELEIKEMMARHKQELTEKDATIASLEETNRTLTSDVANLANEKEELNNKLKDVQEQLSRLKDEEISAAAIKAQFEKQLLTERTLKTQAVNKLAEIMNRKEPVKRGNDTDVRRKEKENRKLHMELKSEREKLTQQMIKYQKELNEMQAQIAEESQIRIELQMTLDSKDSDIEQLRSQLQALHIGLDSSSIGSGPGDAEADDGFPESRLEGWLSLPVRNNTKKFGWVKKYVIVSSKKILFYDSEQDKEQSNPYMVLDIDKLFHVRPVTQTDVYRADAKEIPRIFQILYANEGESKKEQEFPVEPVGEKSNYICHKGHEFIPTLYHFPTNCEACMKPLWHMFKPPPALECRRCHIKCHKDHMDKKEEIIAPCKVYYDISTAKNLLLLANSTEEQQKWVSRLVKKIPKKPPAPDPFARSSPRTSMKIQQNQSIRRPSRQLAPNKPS

SMILES | IC50 [nM]
O=C1N(c2ccc3c(c2)CCc2n[nH]cc2-3)CCC12Cc1ccccc1N2 (racemic) [Example 1, (rac)-1′-(4,5-dihydro-2H-benzo[e]indazol-7-yl)spiro[indoline-2,3′-pyrrolidin]-2′-one] | < 10
COc1cccc(NC2CCN(c3ccc4c(n3)OCc3n[nH]cc3-4)C2=O)c1 (racemic) [Example 11, 1-(2,4-dihydropyrazolo[4′,3′:4,5]pyrano[2,3-b]pyridin-7-yl)-3-((3-methoxyphenyl)amino)pyrrolidin-2-one] | 10 to 100
COc1cc(F)cc(NC2CCN(c3ccc4c(n3)OCc3n[nH]cc3-4)C2=O)c1 (racemic) [Example 12, 1-(2,4-dihydropyrazolo[4′,3′:4,5]pyrano[2,3-b]pyridin-7-yl)-3-((3-fluoro-5-methoxyphenyl)amino)pyrrolidin-2-one] | 10 to 100
O=C1C(Nc2ccc3ncsc3c2)CCN1c1ccc2c(n1)OCc1n[nH]cc1-2 (racemic) [Example 32, 3-(benzo[d]thiazol-6-ylamino)-1-(2,4-dihydropyrazolo[4′,3′:4,5]pyrano[2,3-b]pyridin-7-yl)pyrrolidin-2-one] | 500 to 2000
N#Cc1cccc(NC2CCN(c3ccc4c(n3)OCc3n[nH]cc3-4)C2=O)c1 (racemic) [Example 34, 3-((1-(2,4-dihydropyrazolo[4′,3′:4,5]pyrano[2,3-b]pyridin-7-yl)-2-oxopyrrolidin-3-yl)amino)benzonitrile] | 500 to 2000
O=C1C(Nc2cccc(-c3cnco3)c2)CCN1c1ccc2c(n1)OCc1n[nH]cc1-2 (racemic) [Example 35, 1-(2,4-dihydropyrazolo[4′,3′:4,5]pyrano[2,3-b]pyridin-7-yl)-3-((3-(oxazol-5-yl)phenyl)amino)pyrrolidin-2-one] | 500 to 2000
COc1cccc(NC2CCN(c3ccc4c(c3)OCc3n[nH]cc3-4)C2=O)c1 (single isomer, unassigned) [Example 10, 1-(2,4-dihydrochromeno[3,4-c]pyrazol-7-yl)-3-((3-methoxyphenyl)amino)pyrrolidin-2-one] | < 10
COc1cccc(NC2CCN(c3ccc4c(c3)OCc3n[nH]cc3-4)C2=O)c1 (single isomer, unassigned) [Example 17, 1-(2,4-dihydrochromeno[3,4-c]pyrazol-7-yl)-3-((3-methoxyphenyl)amino)pyrrolidin-2-one] | 10 to 100
COc1cccc(CN2CCN(c3ccc4c(c3)CCc3n[nH]cc3-4)C2=O)c1 [Example 2, 1-(4,5-dihydro-2H-benzo[e]indazol-7-yl)-3-(3-methoxybenzyl)imidazolidin-2-one] | < 10
COc1cccc(N[C@H]2CCN(c3ccc4c(c3)CCc3n[nH]cc3-4)C2=O)c1 [Example 3, (S)-1-(4,5-dihydro-21-benzo[e]indazol-7-yl)-3-((3-methoxyphenyl)amino)pyrolidin-2-one] | < 10
COc1cccc(CN2CCN(c3ccc4c(c3)OCc3n[nH]cc3-4)C2=O)c1 [Example 14, 1-(2,4-dihydrochromeno[3,4-c]pyrazol-7-yl)-3-(3-methoxybenzyl)imidazolidin-2-one] | < 10
COc1cccc(CN2CCN(c3ccc4c(c3)CCc3n[nH]c(C)c3-4)C2=O)c1 [Example 19, 1-(3-methoxybenzyl)-3-(1-methyl-4,5-dihydro-2H-benzo[e]indazol-7-yl)imidazolidin-2-one] | 10 to 100
Cc1ccc(F)c(CN2CCN(c3ccc4c(n3)OCc3n[nH]cc3-4)C2=O)c1 [Example 20, 1-(2,4-dihydropyrazolo[4′,3′:4,5]pyrano[2,3-b]pyridin-7-yl)-3-(2-fluoro-5-methylbenzyl)imidazolidin-2-one] | 10 to 100
Cc1c(F)cccc1CN1CCN(c2ccc3c(n2)OCc2n[nH]cc2-3)C1=O [Example 22, 1-(2,4-dihydropyrazolo[4′,3′:4,5]pyrano[2,3-b]pyridin-7-yl)-3-(3-fluoro-2-methylbenzyl)imidazolidin-2-one] | 10 to 100
NC(=O)c1cccc(CN2CCN(c3ccc4c(n3)OCc3n[nH]cc3-4)C2=O)c1 [Example 23, ((3-(2,4-dihydropyrazolo[4′,3′:4,5]pyrano[2,3-b]pyridin-7-yl)-2-oxoimidazolidin-1-yl)methyl)benzamide] | 10 to 100
COc1cccc(CN2CCN(c3ccc4c(n3)OCc3n[nH]cc3-4)C2=O)c1F [Example 27, 1-(2,4-dihydropyrazolo[4′,3′:4,5]pyrano[2,3-b]pyridin-7-yl)-3-(2-fluoro-3-methoxybenzyl)imidazolidin-2-one] | 100 to 500
Cc1cc(F)ccc1CN1CCN(c2ccc3c(n2)OCc2n[nH]cc2-3)C1=O [Example 28, 1-(2,4-dihydropyrazolo[4′,3′:4,5]pyrano[2,3-b]pyridin-7-yl)-3-(4-fluoro-2-methylbenzyl)imidazolidin-2-one] | 100 to 500
O=C1N(Cc2cc(F)ccc2F)CCN1c1ccc2c(n1)OCc1n[nH]cc1-2 [Example 30, 1-(2,5-difluorobenzyl)-3-(2,4-dihydropyrazolo[4′,3′:4,5]pyrano[2,3-b]pyridin-7-yl)imidazolidin-2-one] | 100 to 500

More lines, now with the values ahead:

IC50 [nM] | SMILES
< 10 | COc1cccc(NC2CCN(c3ccc4c(c3)OCc3n[nH]cc3-4)C2=O)c1 (racemic) [Example 13, 1-(2,4-dihydrochromeno[3,4-c]pyrazol-7-yl)-3-((3-methoxyphenyl)amino)pyrrolidin-2-one]
< 10 | O=C1N(c2ccc3c(c2)CCc2n[nH]cc2-3)CCC12Cc1ccccc1N2 (single isomer, unassigned) [Example 6, 1′-(4,5-dihydro-2H-benzo[e]indazol-7-yl)spiro[indoline-2,3′-pyrrolidin]-2′-one]
10 to 100 | O=C1N(c2ccc3c(c2)CCc2n[nH]cc2-3)CCC12Cc1ccccc1N2 (single isomer, unassigned) [Example 16, 1′-(4,5-dihydro-2H-benzo[e]indazol-7-yl)spiro[indoline-2,3′-pyrrolidin]-2′-one]
10 to 100 | COc1cccc(CNC(=O)Nc2ccc3c(n2)OCc2n[nH]cc2-3)c1 [Example 5, 1-(2,4-dihydropyrazolo[4′,3′:4,5]pyrano[2,3-b]pyridin-7-yl)-3-(3-methoxybenzyl)urea]
< 10 | COc1cccc([C@@H](C)N2CCN(c3ccc4c(c3)CCc3n[nH]cc3-4)C2=O)c1 [Example 7, (R)-1-(4,5-dihydro-2H-benzo[e]indazol-7-yl)-3-(1-(3-methoxyphenyl)ethyl)imidazolidin-2-one]
< 10 | COc1cccc(CN2CCN(c3ccc4c(n3)CCc3n[nH]cc3-4)C2=O)c1 [Example 8, 1-(4,5-dihydro-2H-pyrazolo[4,3-f]quinolin-7-yl)-3-(3-methoxybenzyl)imidazolidin-2-one]
< 10 | COc1cccc(N[C@@H]2CCN(c3ccc4c(c3)CCc3n[nH]cc3-4)C2=O)c1 [Example 9, (R)-1-(4,5-dihydro-2H-benzo[e]indazol-7-yl)-3-((3-methoxyphenyl)amino)pyrrolidin-2-one]
< 10 | COc1cccc(CN2CCN(c3ccc4c(n3)OCc3n[nH]cc3-4)C2=O)c1 [Example 15, 1-(2,4-dihydropyrazolo[4′,3′:4,5]pyrano[2,3-b]pyridin-7-yl)-3-(3-methoxybenzyl)imidazolidin-2-one]
10 to 100 | COc1cc(F)cc(CN2CCN(c3ccc4c(n3)OCc3n[nH]cc3-4)C2=O)c1 [Example 18, 1-(2,4-dihydropyrazolo[4′,3′:4,5]pyrano[2,3-b]pyridin-7-yl)-3-(3-fluoro-5-methoxybenzyl)imidazolidin-2-one]
10 to 100 | O=C1N(Cc2cc(F)cc(F)c2)CCN1c1ccc2c(n1)OCc1n[nH]cc1-2 [Example 21, 1-(3,5-difluorobenzyl)-3-(2,4-dihydropyrazolo[4′,3′:4,5]pyrano[2,3-b]pyridin-7-yl)imidazolidin-2-one]
100 to 500 | Cc1c(F)cccc1NC1CCN(c2ccc3c(n2)OCc2n[nH]cc2-3)C1=O (stereo not shown) [Example 24, 1-(2,4-dihydropyrazolo[4′,3′:4,5]pyrano[2,3-b]pyridin-7-yl)-3-((3-fluoro-2-methylphenyl)amino)pyrrolidin-2-one]
100 to 500 | O=C1N(Cc2cccc(F)c2)CCN1c1ccc2c(n1)OCc1n[nH]cc1-2 [Example 25, 1-(2,4-dihydropyrazolo[4′,3′:4,5]pyrano[2,3-b]pyridin-7-yl)-3-(3-fluorobenzyl)imidazolidin-2-one]
100 to 500 | Cc1cc(CN2CCN(c3ccc4c(n3)OCc3n[nH]cc3-4)C2=O)ccc1F [Example 26, 1-(2,4-dihydropyrazolo[4′,3′:4,5]pyrano[2,3-b]pyridin-7-yl)-3-(4-fluoro-3-methylbenzyl)imidazolidin-2-one]
100 to 500 | O=C1N(Cc2ccc(F)c(F)c2)CCN1c1ccc2c(n1)OCc1n[nH]cc1-2 [Example 29, 1-(3,4-difluorobenzyl)-3-(2,4-dihydropyrazolo[4′,3′:4,5]pyrano[2,3-b]pyridin-7-yl)imidazolidin-2-one]
500 to 2000 | CC(C)(C)c1cccc(CN2CCN(c3ccc4c(n3)OCc3n[nH]cc3-4)C2=O)c1 [Example 31, 1-(3-(tert-butyl)benzyl)-3-(2,4-dihydropyrazolo[4′,3′:4,5]pyrano[2,3-b]pyridin-7-yl)imidazolidin-2-one]
500 to 2000 | O=C1N(Cc2c(F)cccc2F)CCN1c1ccc2c(n1)OCc1n[nH]cc1-2 [Example 33, 1-(2,6-difluorobenzyl)-3-(2,4-dihydropyrazolo[4′,3′:4,5]pyrano[2,3-b]pyridin-7-yl)imidazolidin-2-one]

— patent US10654860B2, “Tricyclic rho kinase inhibitors” (BRISTOL-MYERS SQUIBB COMPANY, priority 2016, dated 2020)
